In PubChem BioAssay (NCI) one finds TGI and GI50 data, which are given here for 14 compounds.

Among the test systems are 786-0 renal; COLO 205 colon; NCI-H226 lung; NCI-H460 lung; OVCAR-5 ovarian; SF-268 CNS; SK-MEL-28 melanoma; SNB-19 CNS; UACC-257 melanoma; HOP-92 NSCLC; HT29 colon.
Holding throughout (test): NCI anticancer screen, dose series, 48 h

Structures are written as SMILES. Several values for one entry are separate records, joined by “and”; a condition that tells them apart may be missing. Equal entries are not always repeated.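 Grown in 96-well plates, cells were treated for 48 hours with each compound at five concentrations. Insufficient inhibition: endpoint recorded as highest concentration tested. Here, GI50 denotes the concentration required for 50% inhibition of growth. TGI is the concentration that stops growth completely.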

Regarding `CC1CSc2nc3[nH]c(=S)[nH]c3c(=O)n2C1` (centres undefined), the TGI with 786-0 renal, with COLO 205 colon, in the test with NCI-H226 lung, with NCI-H460 lung, with OVCAR-5 ovarian and in the test with SF-268 CNS was over 100 µM each time. Further, the TGI in the test with SK-MEL-28 melanoma, with SNB-19 CNS and in the test with UACC-257 melanoma was over 100 µM each time.

As for `C=C(Br)C(Cl)(CBr)CCC(Br)C(C)(C)Cl` (centres undefined), the TGI in the test with 786-0 renal, with COLO 205 colon, with HOP-92 NSCLC, in the test on HT29 colon, in the test with NCI-H226 lung and with OVCAR-5 ovarian was over 10 µM in each case. For the same compound, the TGI with SF-268 CNS, with SK-MEL-28 melanoma and in the test on SNB-19 CNS was over 10 µM each time.

On to `CCCN(CCC)C(=O)Cc1c2n(c3ccccc13)Cc1ccccc1-2`, for which the TGI in the test with 786-0 renal was over 100 µM; in the test on COLO 205 colon, over 100 µM; in the test with HOP-92 NSCLC it was 57.7 µM; in the test with HT29 colon, over 100 µM; with NCI-H226 lung, over 100 µM; in the test with NCI-H460 lung it was over 100 µM. The TGI in the test on SF-268 CNS, in the test on SK-MEL-28 melanoma, with SNB-19 CNS and with UACC-257 melanoma was over 100 µM throughout.

As for `COc1ccc(/C=N/n2c(Cc3ccc(Cl)cc3)n[nH]c2=O)cc1`, the TGI in the test with 786-0 renal is 54.6 µM; with COLO 205 colon, over 100 µM; with HOP-92 NSCLC, 44.7 µM; with HT29 colon it was 28.2 µM; in the test on NCI-H226 lung, over 100 µM; in the test with NCI-H460 lung, over 100 µM. In addition, the TGI is over 100 µM in the test with OVCAR-5 ovarian, over 100 µM with SK-MEL-28 melanoma, 35.6 µM in the test on SNB-19 CNS and over 100 µM with UACC-257 melanoma.

`COC(=O)c1cc(C)ccc1CC(Cc1ccccc1C)C(=O)OC` (centres undefined): the TGI in the test on 786-0 renal is over 100 µM; in the test on COLO 205 colon, over 100 µM; in the test on HOP-92 NSCLC it was 79.7 µM; in the test on HT29 colon, 94.2 µM; with NCI-H226 lung, over 100 µM; with NCI-H460 lung, over 100 µM. Besides, the TGI in the test with SF-268 CNS was over 100 µM; in the test with SK-MEL-28 melanoma, over 100 µM; in the test with SNB-19 CNS it was over 100 µM; in the test on UACC-257 melanoma, 91.9 µM.

For `CCOC(=O)c1ccc(Nc2nc3ccc(C(F)(F)F)cc3nc2-c2ccccc2)cc1`, the TGI in the test with 786-0 renal, in the test with HT29 colon, in the test on NCI-H226 lung, in the test with NCI-H460 lung, with OVCAR-5 ovarian and in the test with SF-268 CNS was over 100 µM in each case. Moreover, the TGI in the test with SK-MEL-28 melanoma, in the test on SNB-19 CNS and with UACC-257 melanoma was over 100 µM throughout.

Regarding `C=CCC1(O)c2cccc(O)c2C(=O)c2cccc(O)c21` (centres undefined), the TGI in the test with 786-0 renal was 46.1 µM; in the test on HOP-92 NSCLC it was 42.3 µM; in the test with HT29 colon it was 64.1 µM; with NCI-H226 lung, 74.3 µM; in the test on NCI-H460 lung, 48 µM; with OVCAR-5 ovarian it was over 100 µM. Moreover, the figures for the TGI in the test with SF-268 CNS, with SK-MEL-28 melanoma and in the test on UACC-257 melanoma were 85.4 µM, 84.7 µM and 38.7 µM, respectively.

For `CCOC(=O)c1c(NC(=O)c2ccccc2)sc2c1CCC2`, the TGI with 786-0 renal, in the test on COLO 205 colon, in the test with HT29 colon, with NCI-H226 lung, in the test with NCI-H460 lung and in the test on OVCAR-5 ovarian was over 100 µM in each case. Moreover, the TGI with SF-268 CNS, in the test with SNB-19 CNS and in the test with UACC-257 melanoma was over 100 µM in each case.

As for `CCOC(=O)/C=C/[C@H](O[Si](c1ccccc1)(c1ccccc1)c1ccccc1)C(C)(C)C`, the TGI with 786-0 renal, in the test with COLO 205 colon, in the test on HOP-92 NSCLC, in the test with HT29 colon, in the test with NCI-H226 lung and in the test on SF-268 CNS was over 31.6 µM throughout. The TGI in the test on SNB-19 CNS and with UACC-257 melanoma was over 31.6 µM each time.

With `C[C@@H]1CCN(C(=O)CC#N)C[C@@H]1N(C)c1ncnc2[nH]ccc12`, the GI50 in the test with COLO 205 colon was over 100 µM; in the test on HT29 colon it was over 100 µM; with NCI-H226 lung, 20.9 µM; with NCI-H460 lung it was over 100 µM; with OVCAR-5 ovarian it was 27.4 µM; in the test on SF-268 CNS, 73.1 µM. In addition, the GI50 with SK-MEL-28 melanoma was 62.6 µM; in the test with UACC-257 melanoma, over 100 µM. Also, the TGI with COLO 205 colon, with HT29 colon, in the test with NCI-H226 lung, with NCI-H460 lung, in the test on OVCAR-5 ovarian and in the test on SF-268 CNS was over 100 µM in each case. For the same compound, the TGI in the test on SK-MEL-28 melanoma and with UACC-257 melanoma was over 100 µM in each case.

Regarding `C/C=C/OC1C(C2COC(C)(C)O2)OC2OC(C)(C)OC21` (centres undefined), the TGI in the test with 786-0 renal, in the test with HOP-92 NSCLC, with HT29 colon, with NCI-H460 lung, in the test with OVCAR-5 ovarian and with SF-268 CNS was over 100 µM in each case. In addition, the TGI with SK-MEL-28 melanoma, with SNB-19 CNS and in the test with UACC-257 melanoma was over 100 µM in each case.

In the case of `O=[N+]([O-])c1cccc2nc3ccccc3c(NCCNCCO)c12`, the TGI is 0.0259 µM and 0.121 µM with 786-0 renal; 0.0106 µM and 0.0213 µM with COLO 205 colon; 0.0237 µM in the test with HOP-92 NSCLC; 0.0495 µM and 0.0261 µM with NCI-H226 lung; 0.108 µM in the test on NCI-H460 lung; 0.088 µM and 0.0672 µM in the test on OVCAR-5 ovarian. For the same compound, the TGI is 0.177 µM and 0.202 µM with SK-MEL-28 melanoma; 0.034 µM and 0.0325 µM with UACC-257 melanoma. Further, the GI50 with SK-MEL-28 melanoma was 0.0239 µM; with SNB-19 CNS, 0.0102 µM; in the test with UACC-257 melanoma, 0.0126 µM.

As to `NNC(=O)CCCCCCCC(=O)O`, the TGI in the test with 786-0 renal, in the test with COLO 205 colon, with HOP-92 NSCLC, in the test with HT29 colon, in the test with NCI-H226 lung and with NCI-H460 lung was over 100 µM throughout. The TGI with OVCAR-5 ovarian, in the test on SK-MEL-28 melanoma, with SNB-19 CNS and with UACC-257 melanoma was over 100 µM throughout.

Consider `O=S(=O)(O)Nc1ccc(-c2nc3ccccc3s2)cc1Cl`, for which the TGI in the test with 786-0 renal, in the test on COLO 205 colon, with HOP-92 NSCLC, in the test on HT29 colon, in the test with NCI-H226 lung and with NCI-H460 lung was over 100 µM each time. The TGI with OVCAR-5 ovarian, in the test on SK-MEL-28 melanoma, with SNB-19 CNS and in the test with UACC-257 melanoma was over 100 µM throughout.
